Data on four molecules can be found in US12692259B2, “Morpholine-containing and piperazine-containing CXCR4 modulators and uses related thereto” (Emory University, priority 2021, dated 2026).

Molecules are shown by their SMILES.

A word on the IC50: it is the concentration that inhibits the measured activity by half. By Papp is commonly meant a coefficient for how fast a substance crosses the barrier.

The target of one data set is CYP450 isoforms 3A4 (Homo sapiens, UniProt P08684). The note with it: cited from earlier work.
A further data set deals with CYP450 isoforms 2D6 (Homo sapiens, UniProt P10635). Particulars: cited from earlier work.
The target of data set [1] is T1, CXCR4 (Homo sapiens, UniProt P61073). Put plainly: Calcium flux assay (antagonist mode, SDF-1α challenge). It is filed as cell-based. Also noted: Eurofins or Bristol Myers Squibb (contract assay). Particulars: read-out: CXCR4 Ca^+2 Flux IC50. The protocol: Calcium flux assay was performed by Eurofins or Bristol Myers Squibb. The method used by Eurofins is described below.
Compound plate preparation: Vehicle controls and positive controls were prepared to ensure all assays were properly controlled. All wells were prepared using the Eurofins Discovery Services GPCRProfiler® Assay Buffer. The GPCRProfiler® Assay Buffer was a modified Hanks Balanced Salt Solution (HBSS) where HBSS was supplemented to contain 20 mM HEPES and 2.5 mM Probenecid at pH 7.4.
Agonist assay (first addition): Compound(s) supplied were plated in duplicate for each concentration assayed. During the agonist assay, the concentration(s) reflects accommodation for the dilution of compound during the antagonist assay. Please see below for further details. […] The reference agonist for each GPCR was included at Emax (the concentration where the reference agonist elicited a maximal response). The agonist assay was conducted on a FLIPR^TETRA instrument where the test compound(s), vehicle controls, and reference agonist were added to the assay plate after a fluorescence/luminescence baseline was established. The agonist assay was a total of 180 seconds and was used to assess each compound's ability to activate each GPCR assayed. Upon completion of the three minute agonist assay, the assay plate was incubated at 25° C. for a further two minutes. After the incubation period the antagonist assay was initiated.
The antagonist assay was conducted using the same assay plate that was used for the agonist assay. The antagonist assay was conducted on a FLIPR^TETRA instrument where vehicle controls and challenge concentration of reference agonist were added to appropriate wells. The antagonist assay was a total of 180 seconds and was used to assess each compound's ability to inhibit each GPCR assayed.
Data Processing—All plates were subjected to appropriate baseline corrections. Once baseline corrections were processed, maximum fluorescence/luminescence values were exported, and data manipulated to calculate percentage activation and percentage inhibition. […] Data manipulation calculation is as followed: ((Max RLU)−(Baseline Avg.))/((Positive Avg.)−(Baseline Avg.)).

A short description of the next data set: PAMPA assay. The note with it: pH 7.4. The format is in vitro ADME. The protocol:
PAMPA assay was performed by BioAssay Systems Services or Bristol Myers Squibb. The method used by BioAssay Systems Services is described below.
Stock solutions in DMSO for all compounds (10 mM) were thawed. The assay was performed in duplicate by following the PAMPA-096 procedure for sample plating. 4% Lecithin in dodecane solution was prepared by resuspending the dried lecithin with 750 μL dodecane. PBS pH 7.4 was used as the diluent. Two sets of plates and equilibrium solutions were incubated for 4 hours at room temperature. Acceptor and equilibrium solutions were analyzed in a UV plate. OD280 nm was used for High Permeability Control (chloramphenicol). OD270 nm was used for Medium Permeability Control (diclofenac) and Low Permeability Control (theophylline). OD254 nm was used for the test compounds.
Data analysis was performed by using the peak absorbance for each respective test compound and Permeability Control to determine the Permeability Rate (Pe) via the following equation: […]
where ODA is the absorbance of Acceptor Solution, ODE is the absorbance of the Equilibrium Standard, and C is determined by the equation below: […]
where Donor Volume (VD) is 0.2 cm^3, Acceptor Volume (VA) is 0.3 cm^3, and Membrane Area (Area) is 0.24 cm^2.

A further data set concerns the target T2, CYP3A4 (Homo sapiens, UniProt P08684).
T2 construct: purchased Corning; host or cells: insect cells (microsomes)
Put plainly: Fluorometric CYP450 inhibition assay, CYP3A4. Particulars: read-out: CYP450 IC50 (μM) 3A4. The format is in vitro ADME. As for the experimental part:
(§1) The CYP450 inhibition assays utilized microsomes from insect cells expressing human recombinant individual cDNA-expressed CYP isoforms 3A4 and 2D6, as well as the fluorogenic probe that produces fluorescent metabolite. Standard inhibitors were co-incubated with fluorogenic substrates and their inhibitory potential (IC50) was determined. Assay conditions in terms of CYP450 protein concentration and time of incubation were standardized, enzyme kinetics parameters of each fluorescent probe substrate were estimated and IC50 values of inhibitors were determined and validated on different days to check reproducibility.
(§2) A 100 mM sodium phosphate buffer was prepared and adjusted to pH 7.4. In a separate falcon tube, a 2× enzyme/substrate (E/S) solution was prepared in phosphate buffer. The final concentration of CYP2D6 (CORNING®) and 7-amido-4-methyl coumaric acid (AMMC) was 10 nM and 4 μM, and CYP3A4 (CORNING®) and 7-benzyloxy-4-(trifluoromethyl) coumarin (BFC) was 20 nM and 40 μM, respectively. In a separate falcon tube, a 2×NADPH regenerating system (NRS) was prepared in phosphate buffer.
(§3) Both enzymatic assays were conducted in a 96-well microtiter plate (Black, CORNING® COSTAR®) with a final volume of 100 μL. Preparation of the plate began with the addition of 74 μL of the E/S in the first well, and 50 μL to all subsequent wells (from 2-11). […] A 1:3 serial dilution of the test compound was conducted by removing 25 μL from the first well and diluting it with the second and so forth until the tenth row. Final concentrations yielded a range from 200 μM-0.01 μM. Well no. 11 contained no inhibitor, and well no. 12 contained no enzyme. Both were used as controls for background fluorescence. The plate was incubated for 30 min at 37° C. After incubation, the reaction was initiated by the addition of 50 μL of the 2×NRS to each well.
(§4) Immediately (within 1 min) the fluorescence was measured using a microplate reader (BIOTEK® Synergy Neo2). […] Data was exported and analyzed using Graph Pad Prism 7. […] The IC50 value was derived after the data was fitted on a 10-point curve using a four-parameter logistic regression model.

The nature of data set [2]: Metabolic stability assay, human liver microsomes (HLM). The format is in vitro ADME. Particulars: 10 min. An excerpt:
Controls were processed and analyzed like the test compounds.
On the technique in general: Liver microsomes are a subcellular fraction often used to study metabolism.

In the next data set the target is T3, CYP2D6 (Homo sapiens, UniProt P10635).
T3 construct: purchased Corning; host or cells: insect cells (microsomes)
Put plainly: Fluorometric CYP450 inhibition assay, CYP2D6. The format is in vitro ADME. The note with it: read-out: CYP450 IC50 (μM) 2D6. As for the experimental part:
as §1, §2, §3, §4

A further data set can be described thus: in vitro. The note with it: mouse, 10 min, 3 µM, pH 7.4. As for the experimental part: Metabolic stability assay was performed at Emory University's Department of Chemistry or by Bristol Myers Squibb. The method used by Emory University's Department of Chemistry is described below.
Each method was developed in the presence of an internal standard (ISTD) d5-7-ethoxy coumarin. The column temperature was maintained at 40° C. for most of the samples otherwise noted. The detection was operated in the Agilent JetStream electrospray positive ionization using multiple reaction monitoring mode (MRM).
Other MS conditions were as follows: dwell time 100 ms; gas flow 10 L/min; nebulizer pressure 45 psi; delta EMV 200 V; fragmentor voltage and collision energy for individual compounds vary.
Test compounds were dissolved in 100% DMSO or 100% MeOH to make 10 mM stock solutions. Verapamil (Sigma Aldrich) aided as a positive control and was dissolved in 100% DMSO to make 10 mM stock solutions. The 10 mM stock solution of test and control compounds were further diluted in potassium phosphate buffer (100 mM, pH 7.4) to 500 μM to ensure the organic solvent content was <0.2%. Human liver microsomes (HLMs) were purchased from Xenotech at 20 mg/mL. NADPH (Sigma Aldrich) 10 mM stocks were prepared in deionized water.
The HLM assay was prepared in a 1.5 mL Eppendorf tube with a final volume of 1100 μL for duplicate runs. Each reaction contained phosphate buffer (928.4 μL), liver microsomes (55 μL), and test compound resulting in a final concentration of 3 μM (6.6 μL of 500 μM). The reaction was initiated with 110 μL of 10 mM NADPH. […] Before centrifugation each of the aliquoted tubes were vortexed to make sure compounds were in the solution. The aliquots were centrifuged at 12,000 g for 5 min and the supernatant removed and placed in an LC-MS vial. Each time point was assessed using LC-MS and the area, based on the extracted ion, was integrated with respect to the ISTD. […] A no-NADPH negative control with test or control compound was performed in a single run (150 μL) at the longest time point. Controls were processed and analyzed like the test compounds. Each time point was run in duplicates followed by in-between blank washes to avoid the carryover and to equilibrate the column.
The MLM assay was performed using the same procedures as those described above for the HLM assay.

Data set [3] concerns the target T1, CXCR4. The experiment in a line: cAMP assay in CXCR4-CHO-Glo cells (GloSensor, forskolin + SDF-1α). It is filed as cell-based. Also noted: expressed in transfected cells. An excerpt:
Materials, reagents, and instrument—Advanced DMEM (Gibco), trypsin EDTA (0.05%, phenol red), L-glutamine, HBSS buffer with and without Ca^2+/Mg^2+ (Gibco), antibiotic-antimycotic (Gibco), hygromycin B, and geneticin selective antibiotic (G418 sulfate) were purchased from Invitrogen. Forskolin (Tocris), SDF-1α (R&D Systems), HEPES (Sigma Aldrich), FBS (Atlanta Biologicals), D-luciferin (Gold Biotechnology), sterile 60 mm tissue culture dishes, and 96-well sterile tissue culture plates were purchased from Corning.
The assay targeted CXCR4 expressed in CHO-gloSensor cells. It monitored GPCR activation based on forskolin-stimulated cAMP production in cells. The assay used a genetically encoded biosensor with its cAMP binding domain fused to luciferase. Binding of cAMP to the cAMP binding domain changed the conformation of the biosensor, leading to the activation of luciferase. The intensity of the luciferase signal (light output) resulted from the oxidation of D-luciferin to oxyluciferin is proportional to the amount of cAMP produced in the cells.
The assay was performed in triplicate using live cells in 96-well tissue culture plates. Cells were pre-incubated in the dark at room temperature for one hour in the presence of D-luciferin. Bioluminescence was quantified before and after the agonist/antagonist addition. Stock solution of forskolin and SDF-1a, was prepared in Locke-Luc buffer. Stock solutions of the test compounds were prepared in DMSO (10 mM); they were diluted by Locke's buffer for use in the assay.
CHO-Glo cells, a cell line stably expressing the GloSensor cAMP biosensor (Promega), were transfected with cDNA encoding human CXCR4 in Pires-AcGFP1 (Clontech) and a stable cell line was isolated (CXCR4-CHO-Glo cells). The CXCR4-CHO-Glo cells were grown to confluency on 60 mm tissue culture dishes. After trypsinization, the cells were plated on 96-well plates and incubated overnight. The next day, culture media in each well was aspirated and replaced with 100 μL Locke's buffer containing 4 mM D-luciferin, followed by incubation in the dark for one hour. Before the addition of agonist/antagonist, each plate was read five times at 2 min intervals to obtain basal bioluminescence values from each well. The average of these five pre-readings was used to normalize each well's response to account for differences in GloSensor expression and cell density. After five pre-readings, cAMP formation was initiated with the addition of 50 μL solution of test compound (TC) in Locke Luc buffer containing forskoline and SDF-1α. […] Luminescence was measured immediately after the addition of the antagonist solution. The measurements were taken every two minutes for 30 minutes in kinetics mode after antagonist addition. IC50 values were calculated from the 4-parameter logistic equation using Prism GraphPad.

T3 sequence (P10635 whole entry): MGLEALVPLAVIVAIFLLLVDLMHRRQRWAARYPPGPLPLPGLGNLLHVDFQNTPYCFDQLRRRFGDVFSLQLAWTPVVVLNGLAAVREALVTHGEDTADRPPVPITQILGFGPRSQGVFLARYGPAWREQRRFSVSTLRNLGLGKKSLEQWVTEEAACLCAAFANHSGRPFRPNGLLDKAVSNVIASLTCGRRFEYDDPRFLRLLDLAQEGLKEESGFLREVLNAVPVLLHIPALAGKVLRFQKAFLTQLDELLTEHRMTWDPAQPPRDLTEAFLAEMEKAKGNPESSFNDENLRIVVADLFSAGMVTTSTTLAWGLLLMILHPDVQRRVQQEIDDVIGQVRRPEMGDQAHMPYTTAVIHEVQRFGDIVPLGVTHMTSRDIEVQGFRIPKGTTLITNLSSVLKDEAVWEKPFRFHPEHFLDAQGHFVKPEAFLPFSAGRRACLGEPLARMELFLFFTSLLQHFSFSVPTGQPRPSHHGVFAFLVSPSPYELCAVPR
T2 sequence (P08684 whole entry): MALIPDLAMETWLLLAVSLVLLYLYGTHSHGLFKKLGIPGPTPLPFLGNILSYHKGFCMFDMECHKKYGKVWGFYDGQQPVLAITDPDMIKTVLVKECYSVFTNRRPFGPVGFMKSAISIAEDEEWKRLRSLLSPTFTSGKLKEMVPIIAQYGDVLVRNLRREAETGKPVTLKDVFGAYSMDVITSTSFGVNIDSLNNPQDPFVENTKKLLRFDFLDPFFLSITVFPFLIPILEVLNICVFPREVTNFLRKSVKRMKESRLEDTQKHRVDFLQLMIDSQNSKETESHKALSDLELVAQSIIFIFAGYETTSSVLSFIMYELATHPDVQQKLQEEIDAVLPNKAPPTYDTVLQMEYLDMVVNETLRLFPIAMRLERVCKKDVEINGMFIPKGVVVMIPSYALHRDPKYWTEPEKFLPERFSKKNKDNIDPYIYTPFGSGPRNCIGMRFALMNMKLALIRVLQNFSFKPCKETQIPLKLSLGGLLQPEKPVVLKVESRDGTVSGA
T1 sequence (P61073 whole entry): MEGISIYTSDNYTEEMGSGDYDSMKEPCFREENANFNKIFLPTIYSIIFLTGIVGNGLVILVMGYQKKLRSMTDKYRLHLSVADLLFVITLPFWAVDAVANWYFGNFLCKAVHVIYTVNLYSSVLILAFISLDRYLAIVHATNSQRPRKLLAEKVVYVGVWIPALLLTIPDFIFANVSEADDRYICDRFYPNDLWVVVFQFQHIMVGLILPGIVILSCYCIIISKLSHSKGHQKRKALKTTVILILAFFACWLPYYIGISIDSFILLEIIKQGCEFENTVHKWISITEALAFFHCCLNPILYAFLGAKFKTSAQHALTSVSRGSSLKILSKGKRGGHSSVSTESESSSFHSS
CYP450 isoforms 2D6, sequence (P10635 whole entry, canonical isoform): as the sequence (P10635 whole entry) above
CYP450 isoforms 3A4, sequence (P08684 whole entry, canonical isoform): as the sequence (P08684 whole entry) above

With `NCCCCN(Cc1nc2ccccc2[nH]1)[C@H]1CCCc2cccnc21` [AMD11070, mavorixafor], the “inhibition of CYP450 isoform 3A4” value on CYP450 isoforms 3A4 was “significant inhibition”. The “inhibition of CYP450 isoform 2D6” value at CYP450 isoforms 2D6 is reported as “significant inhibition”.
Consider `c1ccc2c(c1)CN[C@@H](CN(CCCCN1CCOCC1)[C@H]1CCCc3cccnc31)C2` [EMU-178], for which the IC50 on CXCR4 [1] was 82.5 nM; on CYP3A4, more than 20 µM; at CYP2D6, 0.44 µM. This molecule also yielded a Papp at 4 h in “PAMPA assay” of 21.2 ×10⁻⁶ cm/s. Moreover, the “Liver Microsomes % rem. @ 10 min. H” value in [2] came out at 52.6%. For the same molecule, the “Liver Microsomes % rem. @ 10 min. M” value in “in vitro” turned out to be 3.68%.
As for `c1cnc2c(c1)CN[C@H](CN(CCCCN1CCOCC1)[C@@H]1CCCc3cccnc31)C2` [EMU-204, (R)—N-(4-morpholinobutyl)-N—(((S)-5,6,7,8-tetrahydro-1,6-naphthyridin-7-yl)methyl)-5,6,7,8-tetrahydroquinolin-8-amine], the IC50 at CXCR4 [1] is 270 nM; on CYP3A4, more than 20 µM; on CYP2D6 it was more than 20 µM. The Papp at 4 h in “PAMPA assay” amounted to 21.5 ×10⁻⁶ cm/s. Further, the “Liver Microsomes % rem. @ 10 min. H” value in data set [2] is on record as 100%. In addition, the “Liver Microsomes % rem. @ 10 min. M” value in “in vitro” was found to be 19.6%.
On to `CN(C[C@H]1Cc2c(cccc2N2CCN(C(=O)OCc3ccccc3)CC2)CN1)[C@H]1CCCc2cccnc21` [EMU-291], for which the IC50 is more than 20 µM at CYP3A4, more than 20 µM on CYP2D6 and 2320 nM at CXCR4 [3]. The “Liver Microsomes % rem. @ 10 min. H” value in data set [2] turned out to be 35.6%. Besides, in “in vitro”, the “Liver Microsomes % rem. @ 10 min. M” value came out at 66.4%.
